Columns and labels:
[1] = tested on: Human rhinovirus sp.; assay: Antiviral activity against rhinoviral 8 serotype in a plaque inhibition assay using monolayers of M-HeLa cells; format: functional, organism-based
[2] = tested on: Human rhinovirus sp.; assay: Percent inhibitory activity at 8 uM against rhinoviral 5 serotype in a plaque inhibition assay using monolayers of M-HeLa cells; format: functional
[3] = tested on: Human rhinovirus sp.; assay: Percent inhibitory activity at 8 uM against rhinoviral 3 serotype in a plaque inhibition assay using monolayers of M-HeLa cells; format: functional
[4] = tested on: Human rhinovirus sp.; assay: Percent inhibitory activity at 8 uM against rhinoviral 19s erotype in a plaque inhibition assay using monolayers of M-HeLa cells; format: functional
[5] = tested on: Human rhinovirus sp.; assay: Antiviral activity against rhinoviral 15 serotype in a plaque inhibition assay using monolayers of M-HeLa cells; format: functional, organism-based
[6] = tested on: Human rhinovirus sp.; assay: Percent inhibitory activity at 8 uM against rhinoviral 31 serotype in a plaque inhibition assay using monolayers of M-HeLa cells; format: functional
[7] = tested on: Human rhinovirus sp.; assay: Antiviral activity against rhinoviral 4 serotype in a plaque inhibition assay using monolayers of M-HeLa cells; format: functional, organism-based
[8] = tested on: Human rhinovirus sp.; assay: Percent inhibitory activity at 8 uM against rhinoviral 30 serotype in a plaque inhibition assay using monolayers of M-HeLa cells; format: functional
[9] = tested on: Human rhinovirus sp.; assay: Antiviral activity against rhinoviral 16 serotype in a plaque inhibition assay using monolayers of M-HeLa cells; format: functional, organism-based
[10] = tested on: Human rhinovirus sp.; assay: Percent inhibitory activity at 8 uM against rhinoviral 13 serotype in a plaque inhibition assay using monolayers of M-HeLa cells; format: functional
[11] = Percent inhibitory activity at 8 uM against rhinoviral 2 serotype in a plaque inhibition assay using monolayers of M-HeLa cells; format: functional, Homo sapiens
[12] = tested on: Human rhinovirus sp.; assay: Antiviral activity against rhinoviral 29 serotype in a plaque inhibition assay using monolayers of M-HeLa cells; format: functional, organism-based
[13] = tested on: Human rhinovirus sp.; assay: Percent inhibitory activity at 8 uM against rhinoviral 21 serotype in a plaque inhibition assay using monolayers of M-HeLa cells; format: functional
[14] = tested on: Human rhinovirus sp.; assay: Antiviral activity against rhinoviral 14 serotype in a plaque inhibition assay using monolayers of M-HeLa cells; format: functional, organism-based
[15] = tested on: Human rhinovirus sp.; assay: Antiviral activity against rhinoviral-1A serotype in a plaque inhibition assay using monolayers of M-HeLa cells; format: functional, organism-based
[16] = tested on: Human rhinovirus sp.; assay: Antiviral activity against rhinoviral 9 serotype in a plaque inhibition assay using monolayers of M-HeLa cells; format: functional, organism-based
[17] = Antiviral activity against rhinoviral 18 serotype in a plaque inhibition assay using monolayers of M-HeLa cells at 8 uM; format: functional, cell-based; settings: Homo sapiens
[18] = tested on: Human rhinovirus sp.; assay: Antiviral activity against rhinoviral 12 serotype in a plaque inhibition assay using monolayers of M-HeLa cells; format: functional, organism-based
[19] = tested on: Human rhinovirus sp.; assay: Antiviral activity against rhinoviral-1B serotype in a plaque inhibition assay using monolayers of M-HeLa cells; format: functional, organism-based
[20] = tested on: Human rhinovirus sp.; assay: Percent inhibitory activity at 8 uM against rhinoviral 15 serotype in a plaque inhibition assay using monolayers of M-HeLa cells; format: functional
[21] = tested on: Human rhinovirus sp.; assay: Antiviral activity against rhinoviral 30 serotype in a plaque inhibition assay using monolayers of M-HeLa cells; format: functional, organism-based
[22] = Percent inhibitory activity at 8 uM against rhinoviral-19 serotype in a plaque inhibition assay using monolayers of M-HeLa cells; format: functional, Homo sapiens
[23] = tested on: Human rhinovirus sp.; assay: Percent inhibitory activity at 8 uM against rhinoviral 4 serotype in a plaque inhibition assay using monolayers of M-HeLa cells; format: functional
[24] = tested on: Human rhinovirus sp.; assay: Antiviral activity against rhinoviral-18 serotype in a plaque inhibition assay using monolayers of M-HeLa cells; format: functional, organism-based
[25] = tested on: Human rhinovirus sp.; assay: Antiviral activity against rhinoviral 31 serotype in a plaque inhibition assay using monolayers of M-HeLa cells; format: functional, organism-based

IC50 [1] [µM]	IC50 [9] [µM]	IC50 [12] [µM]	IC50 [14] [µM]	IC50 [15] [µM]	IC50 [16] [µM]	IC50 [18] [µM]	IC50 [19] [µM]	Structure (SMILES)	Inhibition [2] [%]	Inhibition [3] [%]	Inhibition [10] [%]	Inhibition [11] [%]	Inhibition [13] [%]	also measured
8	0.96	3.2	8	1.1	0.46	3.8	0.04	CN(C)c1nc(C(F)(F)F)nc2c1ncn2Cc1ccccc1	33	20	22	33	28	Inhibition [4]: 32%; IC50 [5]: 4.8 µM; Inhibition [6]: 37%; IC50 [7]: 8.8 µM; Inhibition [8]: 19%; IC50 [17]: 10 µM
6.7	1.9	6.3	9.6	8	1.8	5	0.56	CN(C)c1nc(C(F)(F)F)nc2c1ncn2Cc1ccc(Cl)c(NC=O)c1	36	40	43	35	20	Inhibition [20]: 29%; IC50 [21]: 6.5 µM; Inhibition [22]: 18%; Inhibition [23]: 34%; IC50 [24]: 8.7 µM; IC50 [25]: 8 µM
